Results on 4 compounds are retold here after ChEMBL document CHEMBL1201862, “PubChem BioAssay data set” (2004).

The source made the active and inactive calls. Cut-off read from the data, not from the text of the source, for most assays here: actives have a measured IC50 and inactives only a lower limit.

In experiment [1] the target is T1, Sentrin-specific protease 8 (Homo sapiens, UniProt Q96LD8).
T1 sequence (Q96LD8 whole entry): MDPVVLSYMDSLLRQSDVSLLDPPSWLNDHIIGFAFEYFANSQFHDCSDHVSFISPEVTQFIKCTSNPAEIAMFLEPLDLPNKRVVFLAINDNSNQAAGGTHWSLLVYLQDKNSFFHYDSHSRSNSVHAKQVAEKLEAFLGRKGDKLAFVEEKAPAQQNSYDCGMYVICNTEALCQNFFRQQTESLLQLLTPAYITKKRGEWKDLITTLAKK
Nature of the experiment: inhibition of human SENP8 cleavage activity – biochemical, luminescence, SAR follow-up (AID 504501). Format: functional.

For experiment [2], the target named is T2, Caspase-3 (Homo sapiens, UniProt P42574).
T2 sequence (P42574 whole entry): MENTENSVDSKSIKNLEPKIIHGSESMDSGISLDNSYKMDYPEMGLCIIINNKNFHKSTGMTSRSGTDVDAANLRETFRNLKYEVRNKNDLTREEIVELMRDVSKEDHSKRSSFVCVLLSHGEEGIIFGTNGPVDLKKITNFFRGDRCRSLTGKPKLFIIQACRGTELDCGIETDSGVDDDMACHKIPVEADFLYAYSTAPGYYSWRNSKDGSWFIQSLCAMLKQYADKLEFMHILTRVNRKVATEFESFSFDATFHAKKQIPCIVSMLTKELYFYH
Briefly: inhibition of recombinant caspase-3 activity – biochemical, luminescence, set 2, selectivity assay for SENP protease inhibitor project, SAR follow-up (AID 588599). The experiment is classed as functional.

The target in experiment [3] is T1, Sentrin-specific protease 8. Briefly: inhibition of sentrin protease 8 – biochemical, luminescence, set 2, SAR follow-up (AID 588601). The experiment is classed as functional.
Experiment [4] addresses T2, Caspase-3. Briefly: SAR Analysis of small molecule inhibitors of Sentrin-specific proteases (SENPs) using a Caspase-3 Selectivity assay. [Related pubchem assays (depositor defined):AID2540, AID2599, AID434973, AID489001]. The experiment is classed as functional.
The target of experiment [5] is T3, Sentrin-specific protease 7 (Homo sapiens, UniProt Q9BQF6).
T3 sequence (Q9BQF6 whole entry): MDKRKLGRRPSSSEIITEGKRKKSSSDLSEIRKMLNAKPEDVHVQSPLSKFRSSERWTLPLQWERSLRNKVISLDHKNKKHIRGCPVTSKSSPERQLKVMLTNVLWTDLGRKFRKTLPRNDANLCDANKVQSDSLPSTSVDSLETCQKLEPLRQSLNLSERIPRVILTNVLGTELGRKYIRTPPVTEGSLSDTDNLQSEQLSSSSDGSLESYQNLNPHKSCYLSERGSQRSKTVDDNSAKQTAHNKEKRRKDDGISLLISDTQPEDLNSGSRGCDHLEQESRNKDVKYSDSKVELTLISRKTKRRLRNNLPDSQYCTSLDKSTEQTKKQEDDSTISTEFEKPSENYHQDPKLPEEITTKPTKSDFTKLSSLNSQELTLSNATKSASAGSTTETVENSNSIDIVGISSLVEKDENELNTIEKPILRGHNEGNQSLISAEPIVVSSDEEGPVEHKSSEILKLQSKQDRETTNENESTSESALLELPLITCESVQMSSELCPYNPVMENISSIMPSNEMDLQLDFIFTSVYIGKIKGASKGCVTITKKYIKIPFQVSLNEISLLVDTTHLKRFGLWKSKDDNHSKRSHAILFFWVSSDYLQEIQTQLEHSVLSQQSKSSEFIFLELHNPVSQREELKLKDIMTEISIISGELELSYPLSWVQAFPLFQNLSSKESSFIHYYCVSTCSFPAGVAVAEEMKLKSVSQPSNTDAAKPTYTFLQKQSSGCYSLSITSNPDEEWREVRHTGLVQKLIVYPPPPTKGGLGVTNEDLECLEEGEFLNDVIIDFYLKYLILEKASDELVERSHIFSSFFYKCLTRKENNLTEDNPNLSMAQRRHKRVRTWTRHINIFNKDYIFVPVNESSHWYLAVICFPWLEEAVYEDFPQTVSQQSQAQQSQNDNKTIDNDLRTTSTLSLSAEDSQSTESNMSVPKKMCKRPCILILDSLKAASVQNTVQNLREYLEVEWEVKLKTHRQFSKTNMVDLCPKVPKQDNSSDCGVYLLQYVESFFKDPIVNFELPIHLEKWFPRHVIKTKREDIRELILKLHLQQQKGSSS
Nature of the experiment: inhibition of human SENP7 cleavage activity – biochemical, luminescence, set 2, SAR follow-up (AID 588600). Format: functional.

The target in experiment [6] is T4, Sentrin-specific protease 6 (Homo sapiens, UniProt Q9GZR1).
T4 sequence (Q9GZR1 whole entry): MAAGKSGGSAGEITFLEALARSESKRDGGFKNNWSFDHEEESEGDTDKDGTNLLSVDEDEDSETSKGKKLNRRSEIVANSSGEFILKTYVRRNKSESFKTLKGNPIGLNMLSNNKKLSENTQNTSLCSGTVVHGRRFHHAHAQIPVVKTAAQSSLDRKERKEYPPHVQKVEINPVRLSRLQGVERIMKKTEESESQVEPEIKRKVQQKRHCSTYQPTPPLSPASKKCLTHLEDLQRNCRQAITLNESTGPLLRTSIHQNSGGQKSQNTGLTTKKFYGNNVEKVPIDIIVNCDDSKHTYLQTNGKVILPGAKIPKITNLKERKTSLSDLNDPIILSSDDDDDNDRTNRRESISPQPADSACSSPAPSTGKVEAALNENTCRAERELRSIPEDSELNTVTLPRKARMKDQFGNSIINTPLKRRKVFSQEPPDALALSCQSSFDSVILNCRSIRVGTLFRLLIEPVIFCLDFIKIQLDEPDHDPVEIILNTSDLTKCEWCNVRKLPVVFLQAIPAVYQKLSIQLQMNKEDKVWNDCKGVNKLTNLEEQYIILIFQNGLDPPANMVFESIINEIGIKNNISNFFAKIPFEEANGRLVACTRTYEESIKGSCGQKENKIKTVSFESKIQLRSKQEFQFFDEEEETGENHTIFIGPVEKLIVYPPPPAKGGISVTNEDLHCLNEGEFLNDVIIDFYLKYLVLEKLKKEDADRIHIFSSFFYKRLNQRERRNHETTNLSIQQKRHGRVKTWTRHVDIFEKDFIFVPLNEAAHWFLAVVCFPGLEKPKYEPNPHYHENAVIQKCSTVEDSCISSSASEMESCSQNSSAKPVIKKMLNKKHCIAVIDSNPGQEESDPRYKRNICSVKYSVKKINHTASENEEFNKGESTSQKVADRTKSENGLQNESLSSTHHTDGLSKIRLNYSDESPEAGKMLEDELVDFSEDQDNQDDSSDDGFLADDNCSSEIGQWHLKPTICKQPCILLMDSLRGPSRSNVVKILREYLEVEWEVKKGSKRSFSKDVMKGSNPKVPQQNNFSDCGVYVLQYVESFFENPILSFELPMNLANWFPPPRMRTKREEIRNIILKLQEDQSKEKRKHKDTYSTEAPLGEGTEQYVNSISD
Nature of the experiment: SAR Analysis of small molecule inhibitors of Sentrin-specific protease 6 (SENP6) using a Luminescent assay. [Related pubchem assays (depositor defined):AID2582, AID2599]. The experiment is classed as functional.

Experiment [7] addresses T4, Sentrin-specific protease 6. Briefly: inhibition of human SENP6 catalytic domain – biochemical, luminescence, set 2, SAR follow-up (AID 588598). Format: functional.
The target of experiment [8] is T3, Sentrin-specific protease 7. Briefly: inhibition of human SENP7 cleavage activity – biochemical, luminescence, SAR follow-up (AID 504497). The experiment is classed as functional.
The subject of experiment [9] is NIH3T3. Briefly: NIH-3T3 viability loss with fluconazole – cell-based, Alamar Blue, dry powder, set 3, cytotoxicity control for reversing antifungal drug resistance, dose response (AID 488933). Format: functional. The note with it: Mus musculus.
Experiment [10] addresses Hexokinase-1 (Homo sapiens, UniProt P19367). Nature of the experiment: SAR analysis of small molecule inhibitors of hexokinase domain containing I (HKDC1) in the hexokinase 1 selectivity assay. [Related pubchem assays (depositor defined):AID493160, AID493190]. The experiment is classed as functional.
Experiment [11] addresses T5, Hexokinase HKDC1 (Homo sapiens, UniProt Q2TB90).
T5 sequence (Q2TB90 whole entry): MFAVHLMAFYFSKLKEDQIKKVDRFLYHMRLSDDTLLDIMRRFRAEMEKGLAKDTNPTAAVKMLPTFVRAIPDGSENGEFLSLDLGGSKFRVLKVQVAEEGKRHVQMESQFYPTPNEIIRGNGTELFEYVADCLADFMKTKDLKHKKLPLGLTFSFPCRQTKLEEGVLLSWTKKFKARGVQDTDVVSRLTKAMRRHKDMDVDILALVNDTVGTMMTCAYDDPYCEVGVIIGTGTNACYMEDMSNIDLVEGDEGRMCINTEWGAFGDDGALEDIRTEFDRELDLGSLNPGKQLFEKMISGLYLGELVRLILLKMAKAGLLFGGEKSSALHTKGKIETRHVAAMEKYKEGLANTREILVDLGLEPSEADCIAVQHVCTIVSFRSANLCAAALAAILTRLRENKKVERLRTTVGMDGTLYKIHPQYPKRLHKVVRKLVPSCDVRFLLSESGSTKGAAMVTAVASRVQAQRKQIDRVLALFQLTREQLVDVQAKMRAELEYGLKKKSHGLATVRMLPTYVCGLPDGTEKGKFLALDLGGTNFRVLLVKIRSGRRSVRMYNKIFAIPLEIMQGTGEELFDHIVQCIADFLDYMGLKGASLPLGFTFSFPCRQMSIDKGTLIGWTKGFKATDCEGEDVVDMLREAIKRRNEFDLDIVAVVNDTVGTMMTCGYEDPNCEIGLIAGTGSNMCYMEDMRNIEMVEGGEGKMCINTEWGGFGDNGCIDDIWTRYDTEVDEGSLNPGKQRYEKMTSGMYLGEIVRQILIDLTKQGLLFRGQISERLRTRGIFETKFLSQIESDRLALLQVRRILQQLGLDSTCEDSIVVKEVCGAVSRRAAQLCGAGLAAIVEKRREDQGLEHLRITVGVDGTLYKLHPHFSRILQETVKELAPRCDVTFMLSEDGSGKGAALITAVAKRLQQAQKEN
Briefly: SAR analysis of small molecule inhibitors of hexokinase domain containing I (HKDC1). [Related pubchem assays (depositor defined):AID493160, AID493190]. Format: functional.

For experiment [12], the system named is INS1. Nature of the experiment: suppression of cytokine-induced beta-cell apoptosis – INS-1E, caspase luminescence, dry powder, beta-cell apoptosis inhibitor project, dose response (AID 488848). Conditions: Rattus norvegicus. The experiment is classed as functional, cell-based.

Sequence of Hexokinase-1 (P19367 whole entry, the tested form may be a part): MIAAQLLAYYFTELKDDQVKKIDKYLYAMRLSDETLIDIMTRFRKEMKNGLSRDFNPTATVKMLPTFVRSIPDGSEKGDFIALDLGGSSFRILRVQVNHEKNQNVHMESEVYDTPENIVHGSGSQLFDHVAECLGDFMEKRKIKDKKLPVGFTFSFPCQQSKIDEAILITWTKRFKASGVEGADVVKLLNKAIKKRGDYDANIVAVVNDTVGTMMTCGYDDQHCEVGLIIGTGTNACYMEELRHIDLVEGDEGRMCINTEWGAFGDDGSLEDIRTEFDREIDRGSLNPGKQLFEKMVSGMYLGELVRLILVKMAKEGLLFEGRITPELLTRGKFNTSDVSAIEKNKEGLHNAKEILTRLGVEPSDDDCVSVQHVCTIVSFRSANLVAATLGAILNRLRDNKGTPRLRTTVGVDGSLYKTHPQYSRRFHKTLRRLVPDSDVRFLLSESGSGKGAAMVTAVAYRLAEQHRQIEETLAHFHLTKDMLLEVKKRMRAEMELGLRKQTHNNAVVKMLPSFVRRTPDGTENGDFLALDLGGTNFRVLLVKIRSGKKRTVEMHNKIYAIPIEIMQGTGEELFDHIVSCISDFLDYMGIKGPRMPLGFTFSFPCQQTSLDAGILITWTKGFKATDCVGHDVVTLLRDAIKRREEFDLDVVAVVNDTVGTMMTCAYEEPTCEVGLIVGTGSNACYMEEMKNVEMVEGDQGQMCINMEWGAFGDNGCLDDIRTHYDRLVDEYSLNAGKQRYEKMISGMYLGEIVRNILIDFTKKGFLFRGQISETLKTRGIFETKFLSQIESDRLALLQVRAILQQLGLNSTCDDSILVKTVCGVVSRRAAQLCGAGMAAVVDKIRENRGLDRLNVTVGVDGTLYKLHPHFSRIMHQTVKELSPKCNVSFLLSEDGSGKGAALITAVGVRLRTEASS

Take `Oc1ccccc1-c1nc(/C=C/c2ccc(F)cc2)no1`: the IC50 was > 99 µM (inactive) in [1]; 2.55 µM (active) in experiment [2]; 1.64 µM (active) in experiment [3]; 5.5 µM (active) in experiment [4]; 1.87 µM (active) in experiment [5]; 20 µM (active) in [6]. Besides, the results for the IC50 in experiment [7] and in experiment [8] were 1.53 µM (active) and 1.6 µM (active), respectively.

`O=C(c1ccccc1)N1CCN(c2ccccn2)CC1`: in experiment [9], the AC50 was 184 µM (active).

Turning to `O=c1c2ccccc2nc(/C=C/c2ccc(Cl)cc2)n1Cc1ccccc1`, the IC50 in experiment [10] and in [11] was > 80 µM (inactive) in each case.

With `COc1ccc(S(=O)(=O)N(C)C[C@@H]2Oc3c(NC(=O)Nc4cccc5c4CCCC5)cccc3C(=O)N([C@@H](C)CO)C[C@H]2C)cc1`, in [12], the half-maximal activity concentration (AC50) was 52.3 µM (active).
